Source: article PMC3135650 (Molecular pharmaceutics, 2009)
“Also recorded” adds a separate entry of the source. Blank lines part the entries; values can stand above or below the compound they belong to.

Experiments:
[1] = tested on: BCRP; details: read-out: Ki or IC50 values for BCRP; cited from earlier work
[2] = tested on: Caco-2 cells; details: 10 µM FTC; cited from earlier work
[3] = tested on: P-gp; details: 2 µM GF120918, SCRH; cited from earlier work
[4] = target: T1, Bcrp (Rattus norvegicus, UniProt Q80W57); experiment: GF120918 inhibition of nitrofurantoin biliary excretion in SCRH
T1 sequence (Q80W57 1-657): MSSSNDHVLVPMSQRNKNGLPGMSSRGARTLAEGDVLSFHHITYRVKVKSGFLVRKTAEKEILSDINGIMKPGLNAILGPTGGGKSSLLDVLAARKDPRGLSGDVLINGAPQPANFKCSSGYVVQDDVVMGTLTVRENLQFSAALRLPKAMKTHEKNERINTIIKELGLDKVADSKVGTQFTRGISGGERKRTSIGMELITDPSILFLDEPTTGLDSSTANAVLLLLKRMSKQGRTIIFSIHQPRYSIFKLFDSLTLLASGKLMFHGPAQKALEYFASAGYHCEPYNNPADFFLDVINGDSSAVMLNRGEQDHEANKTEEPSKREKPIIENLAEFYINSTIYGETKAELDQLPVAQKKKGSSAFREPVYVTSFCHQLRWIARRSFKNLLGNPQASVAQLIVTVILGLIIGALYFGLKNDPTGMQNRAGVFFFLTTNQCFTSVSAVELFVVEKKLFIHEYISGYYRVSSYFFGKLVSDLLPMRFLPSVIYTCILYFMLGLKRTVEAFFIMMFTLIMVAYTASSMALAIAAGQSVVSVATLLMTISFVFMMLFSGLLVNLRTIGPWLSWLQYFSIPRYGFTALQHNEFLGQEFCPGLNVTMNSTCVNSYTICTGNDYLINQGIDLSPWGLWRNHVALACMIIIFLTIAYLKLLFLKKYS

[5] = target: T1, Bcrp; experiment: Biliary excretion; format: in vitro ADME; details: 10 min; for Nitrofurantoin BEI, % of control (Ad-siNT) / Nitrofurantoin in vitro Clbiliary, % of control (Ad-siNT): 5 µM nitrofurantoin
[6] = tested on: sandwich-cultured rat hepatocytes (SCRH); details: 10-min incubation; digoxin 1 µM, nitrofurantoin 5 µM
[7] = tested on: Bcrp; details: cited from earlier work
[8] = 2 µM GF120918, 5 µM nitrofurantoin, 10 min, day 4 SCRH
[9] = 2 µM GF120918, 5 µM nitrofurantoin, 10 min, day 4 SCRH, data not shown
[10] = day 4 Ad-si01Bcrp-infected SCRH
[11] = day 6 Ad-si01Bcrp-infected SCRH

SMILES: COc1ccc2c3c([nH]c2c1)[C@H](C=C(C)C)N1C(=O)[C@@H]2CCCN2C(=O)[C@@H]1C3 [FTC, fumitremorgin C]
IC50 [1]: 300 to 1300 nM
Effect on digoxin transport in Caco-2 cells [2]: inhibited

Effect on cellular accumulation of nitrofurantoin [4, 8]: significantly increased
Effect on nitrofurantoin accumulation in cells + BC [4, 8]: did not affect
Nitrofurantoin BEI in presence of inhibitor, % of control [4, 9]: ~ 8 % of control
Nitrofurantoin in vitro Clbiliary in presence of inhibitor, % of control [4, 9]: ~ 8 % of control
Inhibition of nitrofurantoin biliary excretion ([4]; 2 µM GF120918, SCRH): almost completely inhibited
SMILES: COc1cc2c(cc1OC)CN(CCc1ccc(NC(=O)c3cccc4c(=O)c5cccc(OC)c5[nH]c34)cc1)CC2 [GF120918, N-(4-[2-(1,2,3,4-tetrahydro-6,7-dimethoxy-2-isoquinolinyl)ethyl]-phenyl)-9,10-dihydro-5-methoxy-9-oxo-4-acridine carboxamide]
P-gp-mediated biliary excretion of digoxin, % of control [3]: ~ 25 % of control

Accumulation in cells + BC and cells, day 6 versus day 4 SCRH [6]: lower
SMILES: C[C@H]1O[C@@H](O[C@H]2[C@@H](O)C[C@H](O[C@H]3[C@@H](O)C[C@H](O[C@H]4CC[C@@]5(C)[C@H](CC[C@@H]6[C@@H]5C[C@@H](O)[C@]5(C)[C@@H](C7=CC(=O)OC7)CC[C@]65O)C4)O[C@@H]3C)O[C@@H]2C)C[C@H](O)[C@@H]1O [digoxin]
Effect of Bcrp knockdown on digoxin accumulation (cells + BC or cells), BEI or in vitro Clbiliary ([5]; Ad-si01Bcrp-infected day 4 or day 6 SCRH, 1 µM digoxin): unaffected; also recorded: did not affect

Nitrofurantoin accumulation in cells + BC versus control (Ad-siNT) ([5]; Ad-si01Bcrp-infected SCRH, 5 µM): similar
Nitrofurantoin BEI, % of control (Ad-siNT) [5, 10]: ~ 24 % of control
Nitrofurantoin in vitro Clbiliary, % of control (Ad-siNT) [5, 10]: ~ 27 % of control
Nitrofurantoin BEI, % of control (Ad-siNT) [5, 11]: 11 % of control
Nitrofurantoin in vitro Clbiliary, % of control (Ad-siNT) [5, 11]: 14 % of control
SMILES: O=C1CN(/N=C/c2ccc([N+](=O)[O-])o2)C(=O)N1 [nitrofurantoin]
Cellular accumulation of nitrofurantoin versus control (Ad-siNT) ([5]; Ad-si01Bcrp-infected day 4 and day 6 SCRH, 5 µM): increased markedly; also recorded: significantly increased
Nitrofurantoin biliary excretion in Abcg2-knockout mice [7]: almost completely abolished
